These results are taken from US20230303570A1, “KINASE INHIBITORS AND USES THEREOF” (ABM Therapeutics Corporation, priority 2020, published 2023).

The structures appear in SMILES notation.

HPK1 (MAP4K1), sequence (Q92918 whole entry, species assumed): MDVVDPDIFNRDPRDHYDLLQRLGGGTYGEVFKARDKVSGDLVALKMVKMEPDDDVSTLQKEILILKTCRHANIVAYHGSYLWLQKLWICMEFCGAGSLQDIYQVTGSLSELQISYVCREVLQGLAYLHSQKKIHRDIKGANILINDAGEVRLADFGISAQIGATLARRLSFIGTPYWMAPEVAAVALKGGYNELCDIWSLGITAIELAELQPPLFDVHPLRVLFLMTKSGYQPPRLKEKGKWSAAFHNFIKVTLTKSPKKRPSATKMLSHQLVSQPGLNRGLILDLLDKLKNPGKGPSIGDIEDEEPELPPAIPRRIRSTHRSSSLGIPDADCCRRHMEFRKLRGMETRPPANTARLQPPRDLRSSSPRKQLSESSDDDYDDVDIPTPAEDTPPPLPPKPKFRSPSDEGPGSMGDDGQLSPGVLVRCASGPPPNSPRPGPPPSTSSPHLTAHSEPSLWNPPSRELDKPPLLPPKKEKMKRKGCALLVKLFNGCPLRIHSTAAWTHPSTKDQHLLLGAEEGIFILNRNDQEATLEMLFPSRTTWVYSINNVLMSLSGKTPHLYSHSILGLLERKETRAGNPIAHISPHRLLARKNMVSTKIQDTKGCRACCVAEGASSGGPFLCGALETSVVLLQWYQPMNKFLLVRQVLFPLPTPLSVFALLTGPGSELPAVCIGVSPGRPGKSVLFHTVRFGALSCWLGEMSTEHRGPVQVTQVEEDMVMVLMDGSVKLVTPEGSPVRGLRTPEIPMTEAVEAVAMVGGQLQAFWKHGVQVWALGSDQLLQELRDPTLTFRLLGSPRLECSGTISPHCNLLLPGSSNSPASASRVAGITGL

This experiment deals with HPK1 (MAP4K1) (Homo sapiens, UniProt Q92918). The experiment in a line: HPK1 (MAP4K1) kinase Lantha screen assay. It is filed as biochemical. How it is done:
The effect of the compounds on the activity of HPK1 (MAP4K1) kinase were assessed by Lantha screen assay. • 1. 1×kinase buffer was prepared (50 mM HEPES, pH 7.5, 10 mM MgCl2, 4 mM DT • 2. Compound and assay plates preparation: • 2-1) The compound was diluted to 100× of the final desired highest inhibitor concentration in reaction by 100% DMSO. For example, if a compound was tested at […], then a solution at 500 µM in DMSO was prepared in this step. • 2-2) For each tested compound, the compound was transferred in tubes to one well on a 96-well storage plate and serially diluted by transferring […] of 100% DMSO in the next well and so forth for a total of 6 concentrations. • 2-3) 100 μl of 100% DMSO were added to two empty wells to serve as no compound control and no enzyme control in the same 96-well plate. The resulting plate was labeled as the source plate. • 2-4) 40 μl of compound from source plate were transferred to a new 384-well Echo plate as the intermediate plate. 100 nl of each well from the 384-well Echo plate were transferred to a 384-well assay plate in duplicates. For example, A1 of the 384-well Echo plate was transferred to A1 and A2 of the 384-well plate. A2 of the 384-well Echo plate was transferred to A3 and A4 of the 384-well plate, and so on; • 3. Kinase reaction: a solution of MAP4K1 in 1× kinase buffer at 2-fold the final concentration of each reagent in the assay was prepared. 5 μl of kinase solution was added to each well of the assay plate, except for control wells without enzyme (add 5 μl of 1× kinase buffer instead). The plate was then shaken, then incubated at room temperature for 10 min. A substrate solution of Fluorescein-PKC and ATP in 1× kinase reaction buffer at 2-fold of the final concentration of each reagent desired in the assay was prepared. 5 μl of substrate solution was added to each well of the assay plate to start reaction. The plate was shaken, then covered, and incubated at room temperature for 90 minutes.
Kinase detection: detection solution of 2-fold of final concentration in Antibody Dilution Buffer was prepared. 10 μl of detection solution was added to each well of the assay plate to stop the reaction. The mixtures were mixed briefly with Centrifuge and incubated at room temperature 60 minutes before reading on a plate reader for fluorescence. Data was collected on Envision with excitation at 340 nm and emission at 520 nm and 495 nm.
As a reminder, the IC50 is the concentration that inhibits the measured activity by half. A high value points to lower potency. With `Cc1ccc(Nc2ncc3c(n2)N2CCN=C2C(c2cc(NC(=O)c4cccc(C(F)(F)F)c4)ccc2C)=C3)cn1` [Compound 207, N-(4-methyl-3-(2-((6-methylpyridin-3-yl)amino)-8,9-dihydroimidazo[1′,2′:1,6]pyrido[2,3-d]pyrimidin-6-yl)phenyl)-3-(trifluoromethyl)benzamide], the half-inhibitory concentration (IC50) was < 0.1 µM.

With `Cc1ccc(NC(=O)c2cc(C(F)(F)F)ccn2)cc1C1=Cc2cnc(Nc3cccnc3C)nc2N2CCN=C12` [Compound 209, N-(4-methyl-3-(2-((2-methylpyridin-3-yl)amino)-8,9-dihydroimidazo[1′,2′:1,6]pyrido[2,3-d]pyrimidin-6-yl)phenyl)-4-(trifluoromethyl)picolinamide], the IC50 was < 0.1 µM.

In the case of `Cc1ccncc1Nc1ncc2c(n1)N1CCN=C1C(c1cc(NC(=O)c3cc(C(F)(F)F)ccn3)ccc1C)=C2` [Compound 210, N-(4-methyl-3-(2-((4-methylpyridin-3-yl)amino)-8,9-dihydroimidazo[1′,2′:1,6]pyrido[2,3-d]pyrimidin-6-yl)phenyl)-4-(trifluoromethyl)picolinamide], the IC50 is < 0.1 µM.

In the case of `Cc1ccc(Nc2ncc3c(n2)N2CCN=C2C(c2cc(NC(=O)c4cc(C(F)(F)F)ccn4)ccc2C)=C3)c(C)n1` [Compound 211, N-(3-(2-((2,6-dimethylpyridin-3-yl)amino)-8,9-dihydroimidazo[1′,2′:1,6]pyrido[2,3-d]pyrimidin-6-yl)-4-methylphenyl)-4-(trifluoromethyl)picolinamide], the IC50 is < 0.1 µM.

As for `Cc1cc(Nc2ncc3c(n2)N2CCN=C2C(c2cc(NC(=O)c4cc(C(F)(F)F)ccn4)ccc2C)=C3)ccn1` [Compound 212, N-(4-methyl-3-(2-((2-methylpyridin-4-yl)amino)-8,9-dihydroimidazo[1′,2′:1,6]pyrido[2,3-d]pyrimidin-6-yl)phenyl)-4-(trifluoromethyl)picolinamide], the IC50 is < 0.1 µM.

On to `Cc1cnccc1Nc1ncc2c(n1)N1CCN=C1C(c1cc(NC(=O)c3cc(C(F)(F)F)ccn3)ccc1C)=C2` [Compound 213, N-(4-methyl-3-(2-((3-methylpyridin-4-yl)amino)-8,9-dihydroimidazo[1′,2′:1,6]pyrido[2,3-d]pyrimidin-6-yl)phenyl)-4-(trifluoromethyl)picolinamide], for which the IC50 was < 0.1 µM.

For the molecule `Cc1ccc(NC(=O)c2cc(C(F)(F)F)ccn2)cc1C1=Cc2cnc(Nc3ccncc3)nc2N2CCN=C12` [Compound 214, N-(4-methyl-3-(2-(pyridin-4-ylamino)-8,9-dihydroimidazo[1′,2′:1,6]pyrido[2,3-d]pyrimidin-6-yl)phenyl)-4-(trifluoromethyl)picolinamide], the half-inhibitory concentration (IC50) was < 0.1 µM.

For `Cc1ccc(NC(=O)c2cc(C(F)(F)F)ccn2)cc1C1=Cc2cnc(Nc3cccnc3)nc2N2CCN=C12` [Compound 215, N-(4-methyl-3-(2-(pyridin-3-ylamino)-8,9-dihydroimidazo[1′,2′:1,6]pyrido[2,3-d]pyrimidin-6-yl)phenyl)-4-(trifluoromethyl)picolinamide], the IC50 is < 0.1 µM.

`Cc1ccc(NC(=O)c2cc(C(F)(F)F)ccn2)cc1C1=Cc2cnc(Nc3ccccn3)nc2N2CCN=C12` [Compound 216, N-(4-methyl-3-(2-(pyridin-2-ylamino)-8,9-dihydroimidazo[1′,2′:1,6]pyrido[2,3-d]pyrimidin-6-yl)phenyl)-4-(trifluoromethyl)picolinamide] registered an IC50 of 0.1 to 10 µM.

In the case of `Cc1ccc(NC(=O)c2cc(C(F)(F)F)ccn2)cc1C1=Cc2cnc(Nc3ccncc3F)nc2N2CCN=C12` [Compound 219, N-(3-(2-((3-fluoropyridin-4-yl)amino)-8,9-dihydroimidazo[1′,2′:1,6]pyrido[2,3-d]pyrimidin-6-yl)-4-methylphenyl)-4-(trifluoromethyl)picolinamide], the IC50 was 0.1 to 10 µM.
